According to patent US20200038399A1, “FORMULATIONS, METHODS, KIT, AND DOSAGE FORMS FOR TREATING BACTERIAL INFECTION” (Motif BioSciences Inc., priority 2016, published 2020):
Read-outs that look alike come from different tables or passages of the source.

Key:
S. aureus 101 [1] = assay: checkerboard synergy assay with iclaprim; type: cell-based, Staphylococcus aureus; details: antibiotic in combination with iclaprim
Description: (§1) The synergistic potential of iclaprim against Gram-positive and Gram-negative bacteria was determined using the checkerboard assay as described in Eliopoulos GM and Moellering, Jr. RC (1991), Antimicrobial combinations, pp. 432-492, in V. Lorian (ed.), Antibiotics in laboratory medicine, 3rd Ed., The Williams & Wilkins Co., Baltimore, the entire disclosure of which is herein incorporated by reference, allowing multiple test concentrations of iclaprim to be assayed in the presence of various concentrations of the other antibiotic in microtiter plates. The same growth media and conditions were used as described in 3.2 below.
(§2) Two different dilutions were used for iclaprim depending on the MIC determined for the bacterium. […] Iclaprim and the other antibiotic being tested were also dispensed alone in the last row and in the last column, respectively, as controls.
(§3) The Fractional Inhibitory Concentrations (FIC) for each added agent were calculated and used to determine the sum of FIC (ΣFIC) indicative of the synergistic potential of a given combination as described in Veyssier P. (1999), Inhibiteurs de la dihydrofolate reductase, nitrohétérocycles (furanes) et 8-hydroxyquinoleines, pp. 995-1027, in A. Bryskier (ed.), Antibiotiques agents antibatériens et antifongiques, 1st Ed., Ellipses Edition Marketing SA, Paris, the entire disclosure of which is herein incorporated by reference. Synergy was defined whereby the ΣFIC was <0.5, indifference (no synergy nor antagonism) whereby ΣFIC was ≥0.5 but ≤4, and antagonism whereby ΣFIC was >4. Additivity as a special form of indifference was defined whereby the ΣFIC was ≥0.5 but <1, for example as described in Stevens, D L et al. (1998), In vitro antimicrobial effects of various combinations of penicillin and clindamycin against four strains of Streptococcus pyogenes, J. Antimicrob. Chemother. 42: 1266-1268, the entire disclosure of which is herein incorporated by reference.

S. pneumoniae 1/1 [2] = assay: MIC determination; type: cell-based, Streptococcus pneumoniae; details: Streptococcus pneumoniae, read-out: Minimum inhibitory concentrations (MIC)
Description: (§4) Minimum inhibitory concentration (MIC) determination.
(§5) In order to choose the appropriate concentrations to be tested in the checkerboard experiments, minimum inhibitory concentrations (MICs) were determined first. […] Table 6) in microtiter plates. Stock solutions (10 mg/ml) of reference antibiotics were prepared in DMSO (except for tobramycin, gentamicin, lomefloxacin, tetracycline) and stored at 4° C. The bacteria were grown in Mueller-Hinton Broth (BBL Mueller-Hinton Broth II, cation adjusted). S. pneumoniae was grown in Mueller-Hinton Broth supplemented with 5% (v/v) lysed sheep blood. For the growth of H. influenzae HTM (Haemophilus test medium) was used containing Mueller-Hinton broth, yeast extract ([…], Difco) and supplemented with NAD and hematin (HTM Supplement, Oxoid SR0158E). M. catarrhalis was grown in Brain Heart Infusion medium (Oxoid). The bacteria were incubated for 18 hours at 37° C. in ambient air except for S. pneumoniae, H. influenzae and M. catarrhalis, which were incubated in the presence of 5% CO2. The MIC was determined as the lowest concentration of an individual drug that lead to no visible growth.

[3] = tested on: Staphylococcus aureus ATCC 25923; assay: checkerboard synergy assay with iclaprim; type: cell-based; details: antibiotic in combination with iclaprim; S. aureus 25923
Description: as §1, §2, §3

[4] = tested on: Klebsiella pneumoniae ATCC 33495; assay: checkerboard synergy assay with iclaprim; type: cell-based; details: antibiotic in combination with iclaprim; K. pneumoniae 33495
Description: as §1, §2, §3

[5] = tested on: Moraxella catarrhalis RA 21; assay: checkerboard synergy assay with iclaprim; type: cell-based; details: antibiotic in combination with iclaprim; M. catarrhalis RA 21
Description: as §1, §2, §3

[6] = tested on: Haemophilus influenzae ATCC 49766; assay: checkerboard synergy assay with iclaprim; type: cell-based; details: antibiotic in combination with iclaprim; H. influenzae 49766
Description: as §1, §2, §3

[7] = tested on: Streptococcus pneumoniae ATCC 49619; assay: checkerboard synergy assay with iclaprim; type: cell-based; details: antibiotic in combination with iclaprim; S. pneumoniae 49619
Description: as §1, §2, §3

S. pneumoniae 1/1 [8] = assay: checkerboard synergy assay with iclaprim; type: cell-based, Streptococcus pneumoniae; details: antibiotic in combination with iclaprim
Description: as §1, §2, §3

[9] = tested on: Staphylococcus aureus ATCC 25923; assay: MIC determination; type: cell-based; details: Staphylococcus aureus, read-out: Minimum inhibitory concentrations (MIC)
Description: as §4, §5

[10] = tested on: Klebsiella pneumoniae ATCC 33495; assay: MIC determination; type: cell-based; details: Klebsiella pneumoniae, read-out: Minimum inhibitory concentrations (MIC)
Description: as §4, §5

[11] = tested on: Moraxella catarrhalis RA 21; assay: MIC determination; type: cell-based; details: Moraxella catarrhalis, read-out: Minimum inhibitory concentrations (MIC)
Description: as §4, §5

[12] = tested on: Haemophilus influenzae ATCC 49766; assay: MIC determination; type: cell-based; details: Haemophilus influenzae, read-out: Minimum inhibitory concentrations (MIC)
Description: as §4, §5

[13] = tested on: Streptococcus pneumoniae ATCC 49619; assay: MIC determination; type: cell-based; details: Streptococcus pneumoniae, read-out: Minimum inhibitory concentrations (MIC)
Description: as §4, §5

S. aureus 101 [14] = assay: MIC determination; type: cell-based, Staphylococcus aureus
Description: as §4, §5

[15] = S. pneumoniae 1/1, 18 hours at 37° C., 5% CO2
[16] = ATCC25923, S. aureus 25923, 18 hours at 37° C.
[17] = ATCC33495, K. pneumonia 33495, 18 hours at 37° C.
[18] = RA21, M. catarrhalis RA 21, 18 hours at 37° C., 5% CO2
[19] = ATCC49619, S. pneumoniae 49619, 18 hours at 37° C., 5% CO2
[20] = Staphylococcus aureus, 101, 18 h; read-out: Minimum inhibitory concentrations (MIC)
[21] = ATCC49766, H. Influenza 49766, 18 hours at 37° C., 5% CO2

Row | Compound | Σ FIC (S. aureus 101 [1]) | Σ FIC [3] | Con (Conclusion) [4] | Σ FIC [4] | Con (Conclusion) [5] | Σ FIC [5] | Con (Conclusion) [6] | Σ FIC [6] | Σ FIC [7] | Σ FIC (S. pneumoniae 1/1 [8]) | MIC (S. pneumoniae 1/1 [2]; [15]) | MIC [9, 16] | MIC [10, 17] | MIC [11, 18] | MIC [13, 19] | MIC (S. aureus 101 [14]; [20]) | MIC [12, 21] | further results
1 | C=C(NC(=O)C(=C)NC(=O)c1csc(C2=N[C@@H]3c4csc(n4)[C@H]4NC(=O)c5csc(n5)[C@H]([C@](C)(O)[C@@H](C)O)NC(=O)[C@H]5CSC(=N5)/C(=C/C)NC(=O)[C@H]([C@@H](C)O)NC(=O)c5csc(n5)[C@]3(CC2)NC(=O)[C@H](C)NC(=O)C(=C)NC(=O)[C@H](C)NC(=O)[C@H]([C@@H](C)CC)N[C@@H]2C=Cc3c([C@H](C)O)cc(nc3[C@H]2O)C(=O)O[C@@H]4C)n1)C(N)=O [Thiostrepton] | 1.50-2.25 | 1.02-1.50 | Ind (Indifference (Ind)) | 1.01-1.50 | Ind (Indifference (Ind)) | 1.02-1.50 | Ind (Indifference (Ind)) | 1.02-1.50 | 1.12-1.50 | 1.12-1.50 |  |  |  |  |  |  |  | MIC (S. pneumoniae 1/1 [2]; 1/1, 18 h): 0.063 µg/mL; MIC ([9]; ATCC25923, 18 h): 0.5 µg/mL; MIC ([10]; ATCC33495, 18 h): > 128 µg/mL; MIC ([11]; RA21, 18 h): 0.5 µg/mL; MIC ([12]; ATCC49766, 18 h): 32 µg/mL; MIC ([13]; ATCC49619, 18 h): 0.063 µg/mL; MIC (S. aureus 101 [14]; Staphylococcus aureus, 101, 18 h, read-out: Minimum inhibitory concentrations (MIC)): 0.5 µg/mL
2 | CN(C)[C@@H]1C(O)=C(C(N)=O)C(=O)[C@@]2(O)C(O)=C3C(=O)c4c(O)cccc4[C@@](C)(O)[C@H]3C[C@@H]12 [Tetracycline, Tetracyclin] | 1.02-2.50 | 2.05-2.48 | Ad (Additivity (Ad)) | 0.56-1.03 | Ind (Indifference (Ind)) | 1.13-1.50 | Ad (Additivity (Ad)) | 0.56-1.25 | 0.75-1.25 | 0.75-1.13 | 16 µg/mL | 0.5 µg/mL | 128 µg/mL | 0.25 µg/mL | 0.25 µg/mL | 128 µg/mL |  | MIC ([12]; ATCC49766, 18 h): 0.5 µg/mL
3 | CO[C@@]1(NC(=O)C(C(=O)O)c2ccc(O)cc2)C(=O)N2C(C(=O)O)=C(CSc3nnnn3C)CO[C@@H]21 (some centres unmarked) [Moxalactam] | 0.63-1.25 | 0.56-1.25 | Ad (Additivity (Ad)) | 0.75-1.25 | Ind (Indifference (Ind)) | 1.00-1.25 | Ind (Indifference (Ind)) | 1.06-1.50 | 1.00-1.25 | 1.13-1.50 | 4 µg/mL | 1 µg/mL | 8 µg/mL | 2 µg/mL | 1 µg/mL | 4 µg/mL | 1 µg/mL | 
4 | NC[C@H]1O[C@H](O[C@H]2[C@H](O)[C@@H](O[C@H]3O[C@H](CO)[C@@H](O)[C@H](N)[C@H]3O)[C@H](N)C[C@@H]2N)[C@H](O)[C@@H](O)[C@@H]1O [Kanamycin] | 1.01-1.50 | 1.06-1.50 | Ad (Additivity (Ad)) | 0.63-0.75 | Ind (Indifference (Ind)) | 1.00-1.25 | Ind (Indifference (Ind)) | 1.02-1.13 | 1.00-1.25 | 1.02-1.50 | 128 µg/mL | 2 µg/mL | 4 µg/mL | 4 µg/mL | 32 µg/mL | > 128 µg/mL | 2 µg/mL | 
5 | [H]/N=C(/N)N[C@H]1[C@H](O)[C@@H](O)[C@H](O[C@@H]2O[C@@H](C)[C@](O)(C=O)[C@H]2O[C@@H]2O[C@@H](CO)[C@H](O)[C@@H](O)[C@@H]2NC)[C@@H](N/C(N)=N\[H])[C@@H]1O [Streptomycin] | 1.13-1.50 | 1.13-1.50 | Ad (Additivity (Ad)) | 0.63-1.06 | Ind (Indifference (Ind)) | 1.06-1.50 | Ind (Indifference (Ind)) | 1.02-1.50 | 1.00-1.25 | 1.01-1.50 | > 128 µg/mL | 4 µg/mL | 64 µg/mL | 8 µg/mL | 32 µg/mL | 8 µg/mL | 0.5 µg/mL | 
6 | COc1ccc(C[C@H](N)C(=O)N[C@H]2[C@@H](O)[C@H](n3cnc4c(N(C)C)ncnc43)O[C@@H]2CO)cc1 [Puromycin] | 1.13-1.50 | 1.06-1.50 | Ind (Indifference (Ind)) | 1.01-1.50 | Ind (Indifference (Ind)) | 1.06-1.50 | Ind (Indifference (Ind)) | 1.06-1.50 | 0.63-1.25 | 1.13-1.50 | 8 µg/mL | 32 µg/mL | > 128 µg/mL | 4 µg/mL | 8 µg/mL | 16 µg/mL | 8 µg/mL | 
7 | CO[C@@H]1[C@@H](OC(N)=O)[C@@H](O)[C@H](Oc2ccc3c(O)c(NC(=O)c4ccc(O)c(CC=C(C)C)c4)c(=O)oc3c2C)OC1(C)C [Novobiocin] | 1.03-1.50 | 1.02-1.50 | Ind (Indifference (Ind)) | 1.00-1.25 | Ind (Indifference (Ind)) | 1.00-1.05 | Ind (Indifference (Ind)) | 1.03-1.50 | 0.75-1.13 | 1.03-1.50 | 4 µg/mL | 0.5 µg/mL | 128 µg/mL | 0.25 µg/mL | 2 µg/mL | 0.25 µg/mL | 0.25 µg/mL | 
